Measurements published in PubChem BioAssay AID1845209 (Molecular Pharmacology Branch, DTP, NCI, 2023).
“And” between values parts separate entries of the source, which are not always exact repeats. Equal entries are not always repeated. The source made the active and inactive calls. Rule for the calls: active = viability on the fitted dose curve at most 10% of control; inactive = the rest.

System: NCI-H211 tumor spheroids, viability percent test/control
Experiment: Anticancer human tumor NCI-H211 cell line growth inhibition;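 for IC50: spheroids exposed to agents for seven days before readout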;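 for viability, T/C: spheroids exposed to agents for seven days before readout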
Conditions: spheroids with HUVEC and MSC; for viability, T/C: stronger effect = lower value
Outline: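 Complex tumor spheroids combined malignant cells with endothelial cells and mesenchymal stem cells. DNA-damaging drugs and DNA repair inhibitors were tested alone and in combination, at half-log dilutions down from clinical Cmax (top 10 microM if Cmax unknown), 0.25% DMSO final.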

Molecule `Cc1cc(C)c(CNC(=O)c2cc(-c3ccc(CN4CCOCC4)cc3)cc3c2cnn3C2CCCC2)c(=O)[nH]1` + Cn1nnc2c(C(N)=O)ncn2c1=O has an IC50 (curve of first compound, second compound 1 µM) of 5600 nM, an IC50 (curve of first compound, second compound 3.16 µM) of 8080 nM and an IC50 (curve of first compound, second compound 10 µM) of 2060 nM. For the same molecule, the IC50 (curve of first compound, second compound 31.6 µM) was 81 nM, the IC50 (curve of first compound, second compound 100 µM) was under 31.6 nM and the viability, T/C (second compound 1 µM, first compound 0.0316 µM) was 92.3%. For the same molecule, the viability, T/C (second compound 1 µM, first compound 0.1 µM) was 81.4%, the viability, T/C (second compound 1 µM, first compound 0.316 µM) was 70% and the viability, T/C (second compound 1 µM, first compound 1 µM) was 70.6%. For the same molecule, the viability, T/C (second compound 1 µM, first compound 3.16 µM) was 72.7%, the viability, T/C (second compound 1 µM, first compound 10 µM) was 32.3% and the viability, T/C (second compound 3.16 µM, first compound 0.0316 µM) was 95.3%. For the same molecule, the viability, T/C (second compound 3.16 µM, first compound 0.1 µM) was 94.7%, the viability, T/C (second compound 3.16 µM, first compound 0.316 µM) was 84% and the viability, T/C (second compound 3.16 µM, first compound 1 µM) was 86.7%. The viability, T/C (second compound 3.16 µM, first compound 3.16 µM) was 71.3%, the viability, T/C (second compound 3.16 µM, first compound 10 µM) was 45% and the viability, T/C (second compound 10 µM, first compound 0.0316 µM) was 95.4%. The viability, T/C (second compound 10 µM, first compound 0.1 µM) was 93.2%, the viability, T/C (second compound 10 µM, first compound 0.316 µM) was 66.7% and the viability, T/C (second compound 10 µM, first compound 1 µM) was 68.7%. For the same molecule, the viability, T/C (second compound 10 µM, first compound 3.16 µM) was 37.9%, the viability, T/C (second compound 10 µM, first compound 10 µM) was 36.8% and the viability, T/C (second compound 31.6 µM, first compound 0.0316 µM) was 58.4%. It also gave a viability, T/C (second compound 31.6 µM, first compound 0.1 µM) of 47.4%, a viability, T/C (second compound 31.6 µM, first compound 0.316 µM) of 35.1% and a viability, T/C (second compound 31.6 µM, first compound 1 µM) of 33.7%. The viability, T/C (second compound 31.6 µM, first compound 3.16 µM) was 10.6%, the viability, T/C (second compound 31.6 µM, first compound 10 µM) was 19.9% and the viability, T/C (second compound 100 µM, first compound 0.0316 µM) was 33.6%. The viability, T/C (second compound 100 µM, first compound 0.1 µM) was 21.7%, the viability, T/C (second compound 100 µM, first compound 0.316 µM) was 18.9% and the viability, T/C (second compound 100 µM, first compound 1 µM) was 16.3%. It also gave a viability, T/C (second compound 100 µM, first compound 3.16 µM) of 10.4% and a viability, T/C (second compound 100 µM, first compound 10 µM) of 7.54%.
In the case of `CNCc1ccc(-c2cc(-c3nc(-c4ccc(S(=O)(=O)C(C)C)cc4)cnc3N)on2)cc1`, the viability, T/C (compound 0.00949 µM) is reported as 66.6% and 86.6% and 97.1%, the viability, T/C (compound 0.03 µM) is reported as 44.6% and 56.7% and 86.2% and the viability, T/C (compound 0.0949 µM) is reported as 9.22% and 5.33% and 14.5%. For the same molecule, the viability, T/C (compound 0.3 µM) was 1.18% and 1.04% and 0.87%, the viability, T/C (compound 0.949 µM) was 0.24% and 0.22% and 0.59% and the viability, T/C (compound 3 µM) was 0.17% and 0.19% (2×). The IC50 (curve of compound) was 22.6 nM and 34.8 nM and 53.7 nM.
With `CC[C@@]1(O)C(=O)OCc2c1cc1n(c2=O)Cc2cc3c(CN(C)C)c(O)ccc3nc2-1` the viability, T/C (compound 0.00949 µM) was 12.2% [middle of 10 runs], the viability, T/C (compound 0.03 µM) was 1.13% [middle of 10 runs] and the viability, T/C (compound 0.0949 µM) was 1.05% [middle of 10 runs]. For the same molecule, the viability, T/C (compound 0.3 µM) was 1.08% [middle of 10 runs], the IC50 (compound alone, run of 11/07/2019) was 4.84 nM [middle of 4 runs] and the IC50 (compound alone, run of 12/16/2019) was 6.27 nM [middle of 5 runs].
For `Cc1sc2c(c1C)C(c1ccc(Cl)cc1)=NC(CC(=O)Nc1ccc(O)cc1)c1nnc(C)n1-2` (stereo not drawn), the viability, T/C (compound 0.00949 µM) was 22.6% and 55.5% and 64.2%, the viability, T/C (compound 0.03 µM) was 3.79% and 7.14% and 8.47% and the viability, T/C (compound 0.0949 µM) was 1.01% and 1.07% and 0.73%. For the same molecule, the viability, T/C (compound 0.3 µM) was 0.87% and 0.68% and 0.48%, the viability, T/C (compound 0.949 µM) was 0.92% and 0.62% and 0.4% and the viability, T/C (compound 3 µM) was 0.83% and 0.65% and 0.43%. For the same molecule, the IC50 (curve of compound) was < 9.49 nM and 10.8 nM and 12.7 nM.
In the case of `COc1cc(C)[nH]c(=O)c1CN1CCc2c(Cl)cc(C(OC)C3COC3)c(Cl)c2C1=O` (stereo not drawn) + CC[C@@]1(O)C(=O)OCc2c1cc1n(c2=O)Cc2cc3c(CN(C)C)c(O)ccc3nc2-1, the IC50 (curve of first compound, second compound 0.003 µM) is reported as over 10000 nM, the IC50 (curve of first compound, second compound 0.00949 µM) is reported as 44.3 nM and the IC50 (curve of first compound, second compound 0.03 µM) is reported as under 31.6 nM. For the same molecule, the IC50 (curve of first compound, second compound 0.0949 µM) was under 31.6 nM, the IC50 (curve of first compound, second compound 0.3 µM) was under 31.6 nM and the viability, T/C (second compound 0.003 µM, first compound 0.0316 µM) was 97.8%. It also gave a viability, T/C (second compound 0.003 µM, first compound 0.1 µM) of 94.2%, a viability, T/C (second compound 0.003 µM, first compound 0.316 µM) of 94.5% and a viability, T/C (second compound 0.003 µM, first compound 1 µM) of 80.2%. The viability, T/C (second compound 0.003 µM, first compound 3.16 µM) was 84.6%, the viability, T/C (second compound 0.003 µM, first compound 10 µM) was 79.1% and the viability, T/C (second compound 0.00949 µM, first compound 0.0316 µM) was 61.2%. It also gave a viability, T/C (second compound 0.00949 µM, first compound 0.1 µM) of 23.1%, a viability, T/C (second compound 0.00949 µM, first compound 0.316 µM) of 19.7% and a viability, T/C (second compound 0.00949 µM, first compound 1 µM) of 23.1%. It also gave a viability, T/C (second compound 0.00949 µM, first compound 3.16 µM) of 20.5%, a viability, T/C (second compound 0.00949 µM, first compound 10 µM) of 17.4% and a viability, T/C (second compound 0.03 µM, first compound 0.0316 µM) of 2.26%. For the same molecule, the viability, T/C (second compound 0.03 µM, first compound 0.1 µM) was 1.33%, the viability, T/C (second compound 0.03 µM, first compound 0.316 µM) was 1.49% and the viability, T/C (second compound 0.03 µM, first compound 1 µM) was 1.03%. For the same molecule, the viability, T/C (second compound 0.03 µM, first compound 3.16 µM) was 0.89%, the viability, T/C (second compound 0.03 µM, first compound 10 µM) was 1.35% and the viability, T/C (second compound 0.0949 µM, first compound 0.0316 µM) was 1.49%. The viability, T/C (second compound 0.0949 µM, first compound 0.1 µM) was 1.42%, the viability, T/C (second compound 0.0949 µM, first compound 0.316 µM) was 1.65% and the viability, T/C (second compound 0.0949 µM, first compound 1 µM) was 1.41%. The viability, T/C (second compound 0.0949 µM, first compound 3.16 µM) was 1.22%, the viability, T/C (second compound 0.0949 µM, first compound 10 µM) was 0.83% and the viability, T/C (second compound 0.3 µM, first compound 0.0316 µM) was 1.31%. The viability, T/C (second compound 0.3 µM, first compound 0.1 µM) was 1.63%, the viability, T/C (second compound 0.3 µM, first compound 0.316 µM) was 1.29% and the viability, T/C (second compound 0.3 µM, first compound 1 µM) was 1.18%. For the same molecule, the viability, T/C (second compound 0.3 µM, first compound 3.16 µM) was 1.75% and the viability, T/C (second compound 0.3 µM, first compound 10 µM) was 0.92%.
With `COc1ccc([C@@H](O)c2cc(-c3ncnc4cc(N5CCOCC5)ccc34)c(F)cc2Cl)nn1` the viability, T/C (compound 0.0316 µM) was 102% and 96.3% and 105%, the viability, T/C (compound 0.1 µM) was 100% and 102% and 109% and the viability, T/C (compound 0.316 µM) was 95.9% and 93.1% and 104%. For the same molecule, the viability, T/C (compound 1 µM) was 90.3% and 101%, the outcome (compound 1 µM) was “inactive” and the viability, T/C (compound 3.16 µM) was 74.8% and 85% and 96%. For the same molecule, the viability, T/C (compound 10 µM) was 11.4% and 40.7% and 40.8% and the IC50 (curve of compound) was 4870 nM and 7850 nM and 8300 nM.
